The values below come from US20210177893A1, “Composition and method for treating and healing Medication-Related Osteonecrosis of the Jaw (MRONJ)” (priority 2019, published 2021).

For data set [1], the system named is MRONJ. Conditions: oral alendronate users, 208 patients; cited from earlier work.
Data set [2] deals with MRONJ. Conditions: out of 24 patients treated with 0.12% chlorhexidine; cited from earlier work.
For data set [3], the system named is capillary neoangiogenesis. Conditions: cited from earlier work.
For data set [4] the following is noted: in the glycerin gels; cited from earlier work.
The subject of data set [5] is oral mucosal cells (human gingival fibroblasts and keratinocytes). The conditions noted are these: direct application, in vitro; cited from earlier work.
In data set [6] the test system is MRONJ lesions. Kind of data set: Clinical observation of MRONJ patients (Example 1). The format is in vivo, human. Conditions: one patient on intravenous zoledronate, multiple myeloma; lesion smoothed, antibiotic regimen; observed a little over a year.

Turning to `NCCCC(O)(P(=O)(O)O)P(=O)(O)O` [alendronate], the MRONJ prevalence rate in data set [1] is recorded as 4%.

For the molecule `[H]/N=C(\N/C(=N/[H])NCCCCCCNC(=N)NC(=N)Nc1ccc(Cl)cc1)Nc1ccc(Cl)cc1` [chlorhexidine], in data set [2], the “patients who experienced MRONJ progression” value was 13 patients, the “patients who experienced MRONJ resolution” value is reported as 3 patients and the “patients who experienced no change in ONJ status” value is 8 patients.

As for `NCCC(O)(P(=O)(O)O)P(=O)(O)O` [pamidronate], the “effect on new formation of capillaries from blood vessels (capillary neoangiogenesis)” value in data set [3] was “inhibit the new formation of capillaries from blood vessels”.

With `[F][Sn][F]` [stannous fluoride], in data set [4], the stability entry is on record as “relatively stable”.

For the molecule `O=P(O)(O)C(O)(Cn1ccnc1)P(=O)(O)O` [zoledronic acid], in data set [5], the “effect on the life of oral mucosal cells” value is reported as “deleterious effect on the life of these cells”.

With Augmentin, in data set [6], the “outcome of bone lesion” value is “continued to increase in size and did not heal”.
